Experimental data taken from ChEMBL document CHEMBL4680282, “Repurposing of Drugs-The Ketamine Story” (J Med Chem, 2020).
Values after ≈ are worked out from the molar mass of the structure shown.

What was measured:
[1] = biological target: Glutamate NMDA receptor; experiment: Displacement of [3H]-MK801 from NMDA receptor in rat brain homogenate; format: tissue-based
[2] = biological target: Glutamate NMDA receptor; experiment: Displacement of [3H]-MK801 from NMDA receptor in rat brain membranes; format: cell membranes, Membrane
[3] = Cmax in mouse brain at 10 mg/kg, ip measured after 10 mins; format: ADME, organism-based; design: route intraperitoneal, time 10 min, dose 10 mg/kg; details: in vivo
[4] = Solubility of the compound in water; format: physicochemical
[5] = biological target: Glutamate NMDA receptor; experiment: Displacement of [3H]-MK801 from NMDA receptor in rat brain membranes incubated for 2 hrs in presence of Mg2+ by radioligand binding assay; format: cell membranes, Membrane
[6] = tested on: Homo sapiens; experiment: Anesthetic activity in po dosed human assessed as time duration for onset of action; format: functional
[7] = biological target: Glutamate NMDA receptor; experiment: Displacement of [3H]-MK801 from NMDA receptor in Sprague-Dawley rat cortex incubated for 2 hrs in presence of Mg2+ by scintillation counting method; format: tissue-based
[8] = biological target: Glutamate NMDA receptor; experiment: Displacement of [3H]-MK801 from NMDA receptor in rat spinal cord incubated for 45 mins by liquid scintillation spectrometry; format: tissue-based
[9] = biological target: Glutamate NMDA receptor; Grin1/Grin2b (Rattus norvegicus, UniProt P35439+Q00960); experiment: Displacement of [3H]-MK801 from rat brain GluN1/GluN2B expressed in HEK293 cells; format: cell-based
[10] = tested on: Homo sapiens; experiment: Anesthetic activity in IM dosed human assessed as time duration of action; format: functional
[11] = tested on: Homo sapiens; experiment: Anesthetic activity in po dosed human assessed as time duration of action; format: functional
[12] = Aqueous solubility of the compound; format: physicochemical
[13] = biological target: Glutamate NMDA receptor; GRIN1/GRIN2A (Homo sapiens, UniProt Q05586+Q12879); experiment: Displacement of [3H]-MK801 from human forebrain […] expressed in HEK293 cells by […]; format: cell-based
[14] = Cmax in human at 2 mg/kg, iv measured after 1 mins; format: ADME, organism-based; design: route intravenous, time 1 min, dose 2 mg/kg; details: in vivo
[15] = Displacement of [3H]-MK801 from NMDA receptor in dog brain homogenate incubated for 45 mins by liquid scintillation spectrometry; format: tissue-based, Canis lupus familiaris
[16] = Protein binding in human plasma; format: ADME, cell-free; details: read-out: PPB (converted)
[17] = biological target: Glutamate NMDA receptor; experiment: Displacement of [3H]-MK801 from NMDA receptor in rat brain membranes incubated for 45 mins in presence of Mg2+ by scintillation counting method; format: cell membranes, Membrane
[18] = biological target: Glutamate NMDA receptor; experiment: Displacement of [3H]-TCP from NMDA receptor in rat brain membranes incubated for 45 mins in presence of Mg2+ by scintillation counting method; format: cell membranes, Membrane
[19] = biological target: Glutamate [NMDA] receptor; experiment: Displacement of [3H]-MK801 from NMDA receptor in human frontal cortex in presence of Mg2+ by scintillation counting method; format: tissue-based
[20] = biological target: Glutamate NMDA receptor; experiment: Displacement of [3H]-MK801 from NMDA receptor in Sprague-Dawley rat cerebellum by liquid scintillation counting method; format: tissue-based
[21] = tested on: Homo sapiens; experiment: Anesthetic activity in IN dosed human assessed as time duration for onset of action; format: functional
[22] = biological target: Glutamate NMDA receptor; experiment: Displacement of [3H]-MK801 from NMDA receptor in rat whole brain homogenate incubated for 2 hrs in presence of Mg2+ by liquid scintillation counting method; format: tissue-based
[23] = Bioavailability in IN dosed human; format: ADME, organism-based; details: in vivo, inhaled or intranasal
[24] = biological target: Glutamate NMDA receptor; Grin1/Grin2a (Rattus norvegicus, UniProt P35439+Q00959); experiment: Displacement of [3H]-MK801 from rat brain GluN1/GluN2A expressed in HEK293 cells; format: cell-based
[25] = biological target: Glutamate NMDA receptor; experiment: Displacement of [3H]-MK801 from NMDA receptor in Sprague-Dawley rat brain synaptic membrane incubated for 60 mins by liquid scintillation counting method; format: cell membranes
[26] = Displacement of [3H]-MK801 from NMDA receptor in Dunkin-Hartley guinea pig brain homogenate incubated for 45 mins by liquid scintillation spectrometry; format: tissue-based, Cavia porcellus
[27] = Oral bioavailability in human; format: ADME, organism-based; details: in vivo
[28] = Displacement of [3H]-MK801 from NMDA receptor in dog cerebral cortex incubated for 45 mins by liquid scintillation spectrometry; format: tissue-based, Canis lupus familiaris
[29] = biological target: Glutamate NMDA receptor; experiment: Displacement of [3H]-MK801 from NMDA receptor in rat striatum incubated for 2 hrs in presence of Mg2+ by scintillation counting method; format: tissue-based
[30] = Bioavailability in human at 0.5 mg/kg, IM; format: ADME, organism-based; details: in vivo
[31] = biological target: Glutamate [NMDA] receptor; experiment: Displacement of [3H]-MK801 from NMDA receptor in human cortex incubated for 2 hrs in presence of Mg2+ by scintillation counting method; format: tissue-based
[32] = tested on: Homo sapiens; experiment: Anesthetic activity in SC dosed human assessed as time duration for onset of action; format: functional
[33] = tested on: Homo sapiens; experiment: Anesthetic activity in IM dosed human assessed as time duration for onset of action; format: functional
[34] = Elimination half life in Wistar rat at 20 mg/kg, iv by LC-MS analysis; format: ADME, organism-based; details: in vivo, read-out: beta t1/2 (converted)
[35] = Bioavailability in REC dosed human; format: ADME, organism-based; details: in vivo
[36] = Displacement of [3H]-MK801 from NMDA receptor in ICR Harlan mouse brain homogenate incubated for 45 mins by liquid scintillation spectrometry; format: tissue-based
[37] = Elimination half life in human; format: ADME; details: read-out: beta t1/2 (converted)
[38] = biological target: Glutamate NMDA receptor; experiment: Displacement of [3H]-MK801 from NMDA receptor in rat brain membranes incubated for 2 hrs in presence of Mg2+/glumate/glycine by radioligand binding assay; format: cell membranes, Membrane
[39] = biological target: Glutamate NMDA receptor; experiment: Displacement of [3H]-MK801 from NMDA receptor in Sprague-Dawley rat cerebral cortex by liquid scintillation counting method; format: tissue-based
[40] = biological target: Glutamate NMDA receptor; experiment: Inhibition of NMDAR-mediated excitatory postsynaptic potential in Sprague-Dawley rat hippocampus CA1 region by electrophysiology; design: species or system Brain
[41] = Drug elimination in human urine assessed as metabolically unchanged compound; format: ADME; details: read-out: Drug excretion
[42] = Bioavailability in SL dosed human; format: ADME, organism-based; details: in vivo
[43] = biological target: Glutamate NMDA receptor; experiment: Displacement of [3H]-MK801 from NMDA receptor in rat brain membranes incubated for 60 mins in presence of Mg2+ by liquid scintillation counting method; format: cell membranes, Membrane
[44] = biological target: Glutamate NMDA receptor; experiment: Displacement of [3H]-MK801 from NMDA receptor in rat forebrain homogenate incubated for 2 hrs in presence of Mg2+ by liquid scintillation counting method; format: tissue-based
[45] = Bioavailability in iv dosed human; format: ADME, organism-based; details: in vivo

Sequence of Glutamate NMDA receptor; Grin1/Grin2a (Q00959 whole entry, other chains not shown): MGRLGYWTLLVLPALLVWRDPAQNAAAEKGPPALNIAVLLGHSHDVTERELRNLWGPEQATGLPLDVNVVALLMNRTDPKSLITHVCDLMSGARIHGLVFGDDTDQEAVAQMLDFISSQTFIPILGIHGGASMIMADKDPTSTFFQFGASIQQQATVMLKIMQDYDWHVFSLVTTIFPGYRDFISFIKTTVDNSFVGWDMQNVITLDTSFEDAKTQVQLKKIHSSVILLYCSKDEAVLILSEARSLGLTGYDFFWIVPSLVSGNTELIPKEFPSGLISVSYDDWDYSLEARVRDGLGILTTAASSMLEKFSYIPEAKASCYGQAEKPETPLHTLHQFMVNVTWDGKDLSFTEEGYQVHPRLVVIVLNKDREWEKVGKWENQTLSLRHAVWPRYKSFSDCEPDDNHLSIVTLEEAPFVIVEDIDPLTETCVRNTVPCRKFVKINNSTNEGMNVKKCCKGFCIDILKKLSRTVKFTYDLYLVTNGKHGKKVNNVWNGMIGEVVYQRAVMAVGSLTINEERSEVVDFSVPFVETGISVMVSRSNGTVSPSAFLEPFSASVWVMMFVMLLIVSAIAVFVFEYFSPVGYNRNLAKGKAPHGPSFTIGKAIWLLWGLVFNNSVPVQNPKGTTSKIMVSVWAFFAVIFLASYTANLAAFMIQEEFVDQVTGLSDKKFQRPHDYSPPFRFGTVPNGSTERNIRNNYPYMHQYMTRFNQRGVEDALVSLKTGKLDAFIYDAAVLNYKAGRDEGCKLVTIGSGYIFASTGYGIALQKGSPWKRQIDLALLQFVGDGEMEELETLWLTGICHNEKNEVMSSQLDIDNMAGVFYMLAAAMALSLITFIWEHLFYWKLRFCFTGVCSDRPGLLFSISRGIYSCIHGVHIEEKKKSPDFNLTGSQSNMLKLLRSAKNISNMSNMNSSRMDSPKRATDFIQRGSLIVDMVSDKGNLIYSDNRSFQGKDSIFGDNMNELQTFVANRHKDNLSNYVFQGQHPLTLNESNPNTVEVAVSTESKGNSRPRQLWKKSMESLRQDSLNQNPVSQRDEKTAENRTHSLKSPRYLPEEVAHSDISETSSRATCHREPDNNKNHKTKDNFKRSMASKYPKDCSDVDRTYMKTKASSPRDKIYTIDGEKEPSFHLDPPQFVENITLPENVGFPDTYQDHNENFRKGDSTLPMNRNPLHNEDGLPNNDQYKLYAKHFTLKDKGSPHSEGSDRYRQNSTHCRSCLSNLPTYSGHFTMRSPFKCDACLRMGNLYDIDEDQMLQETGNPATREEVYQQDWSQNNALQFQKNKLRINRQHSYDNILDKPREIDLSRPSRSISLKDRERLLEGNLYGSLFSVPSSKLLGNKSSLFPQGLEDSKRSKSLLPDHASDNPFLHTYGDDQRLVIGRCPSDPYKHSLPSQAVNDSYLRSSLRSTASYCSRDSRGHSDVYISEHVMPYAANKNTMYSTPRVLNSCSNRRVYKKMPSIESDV
Sequence of Glutamate NMDA receptor; Grin1/Grin2b (Q00960 whole entry, other chains not shown): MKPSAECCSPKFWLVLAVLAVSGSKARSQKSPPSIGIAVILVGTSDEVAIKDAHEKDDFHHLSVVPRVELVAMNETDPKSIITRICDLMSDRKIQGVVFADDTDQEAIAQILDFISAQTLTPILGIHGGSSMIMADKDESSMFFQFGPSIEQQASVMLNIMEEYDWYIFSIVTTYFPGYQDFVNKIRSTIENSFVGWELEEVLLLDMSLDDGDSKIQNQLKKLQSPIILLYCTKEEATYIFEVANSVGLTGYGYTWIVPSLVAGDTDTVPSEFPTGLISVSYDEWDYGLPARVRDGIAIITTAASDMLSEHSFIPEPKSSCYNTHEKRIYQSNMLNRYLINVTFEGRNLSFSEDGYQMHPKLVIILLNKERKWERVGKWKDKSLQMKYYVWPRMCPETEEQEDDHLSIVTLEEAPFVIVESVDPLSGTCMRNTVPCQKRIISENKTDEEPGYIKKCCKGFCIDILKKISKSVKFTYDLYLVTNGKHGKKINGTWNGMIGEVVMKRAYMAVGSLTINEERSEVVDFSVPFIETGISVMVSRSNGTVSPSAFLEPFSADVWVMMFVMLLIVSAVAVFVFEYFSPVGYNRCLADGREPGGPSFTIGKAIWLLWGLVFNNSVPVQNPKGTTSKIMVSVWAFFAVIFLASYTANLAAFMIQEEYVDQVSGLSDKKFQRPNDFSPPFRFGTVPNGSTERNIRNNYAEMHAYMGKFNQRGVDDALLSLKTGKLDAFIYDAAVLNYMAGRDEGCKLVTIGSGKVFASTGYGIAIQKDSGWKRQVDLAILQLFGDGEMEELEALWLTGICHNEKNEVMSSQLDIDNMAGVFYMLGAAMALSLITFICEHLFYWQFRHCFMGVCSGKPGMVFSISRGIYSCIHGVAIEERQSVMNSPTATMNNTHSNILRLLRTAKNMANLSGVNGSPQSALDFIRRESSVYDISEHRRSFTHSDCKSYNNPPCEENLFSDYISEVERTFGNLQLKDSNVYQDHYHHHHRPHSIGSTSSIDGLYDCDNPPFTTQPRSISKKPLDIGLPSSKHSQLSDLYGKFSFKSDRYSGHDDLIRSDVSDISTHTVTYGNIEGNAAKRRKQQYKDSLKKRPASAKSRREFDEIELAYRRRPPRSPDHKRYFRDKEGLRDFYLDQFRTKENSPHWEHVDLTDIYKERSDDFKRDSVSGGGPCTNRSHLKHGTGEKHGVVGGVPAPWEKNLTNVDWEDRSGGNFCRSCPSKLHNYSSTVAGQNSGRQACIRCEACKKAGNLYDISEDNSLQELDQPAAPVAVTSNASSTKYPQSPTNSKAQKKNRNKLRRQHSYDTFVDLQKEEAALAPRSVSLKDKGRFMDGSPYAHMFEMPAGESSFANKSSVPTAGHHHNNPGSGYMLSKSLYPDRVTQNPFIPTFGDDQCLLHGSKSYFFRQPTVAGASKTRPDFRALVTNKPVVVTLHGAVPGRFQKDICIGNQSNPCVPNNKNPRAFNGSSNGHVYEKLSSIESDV
Sequence of Glutamate NMDA receptor; GRIN1/GRIN2A (Q12879 whole entry, other chains not shown): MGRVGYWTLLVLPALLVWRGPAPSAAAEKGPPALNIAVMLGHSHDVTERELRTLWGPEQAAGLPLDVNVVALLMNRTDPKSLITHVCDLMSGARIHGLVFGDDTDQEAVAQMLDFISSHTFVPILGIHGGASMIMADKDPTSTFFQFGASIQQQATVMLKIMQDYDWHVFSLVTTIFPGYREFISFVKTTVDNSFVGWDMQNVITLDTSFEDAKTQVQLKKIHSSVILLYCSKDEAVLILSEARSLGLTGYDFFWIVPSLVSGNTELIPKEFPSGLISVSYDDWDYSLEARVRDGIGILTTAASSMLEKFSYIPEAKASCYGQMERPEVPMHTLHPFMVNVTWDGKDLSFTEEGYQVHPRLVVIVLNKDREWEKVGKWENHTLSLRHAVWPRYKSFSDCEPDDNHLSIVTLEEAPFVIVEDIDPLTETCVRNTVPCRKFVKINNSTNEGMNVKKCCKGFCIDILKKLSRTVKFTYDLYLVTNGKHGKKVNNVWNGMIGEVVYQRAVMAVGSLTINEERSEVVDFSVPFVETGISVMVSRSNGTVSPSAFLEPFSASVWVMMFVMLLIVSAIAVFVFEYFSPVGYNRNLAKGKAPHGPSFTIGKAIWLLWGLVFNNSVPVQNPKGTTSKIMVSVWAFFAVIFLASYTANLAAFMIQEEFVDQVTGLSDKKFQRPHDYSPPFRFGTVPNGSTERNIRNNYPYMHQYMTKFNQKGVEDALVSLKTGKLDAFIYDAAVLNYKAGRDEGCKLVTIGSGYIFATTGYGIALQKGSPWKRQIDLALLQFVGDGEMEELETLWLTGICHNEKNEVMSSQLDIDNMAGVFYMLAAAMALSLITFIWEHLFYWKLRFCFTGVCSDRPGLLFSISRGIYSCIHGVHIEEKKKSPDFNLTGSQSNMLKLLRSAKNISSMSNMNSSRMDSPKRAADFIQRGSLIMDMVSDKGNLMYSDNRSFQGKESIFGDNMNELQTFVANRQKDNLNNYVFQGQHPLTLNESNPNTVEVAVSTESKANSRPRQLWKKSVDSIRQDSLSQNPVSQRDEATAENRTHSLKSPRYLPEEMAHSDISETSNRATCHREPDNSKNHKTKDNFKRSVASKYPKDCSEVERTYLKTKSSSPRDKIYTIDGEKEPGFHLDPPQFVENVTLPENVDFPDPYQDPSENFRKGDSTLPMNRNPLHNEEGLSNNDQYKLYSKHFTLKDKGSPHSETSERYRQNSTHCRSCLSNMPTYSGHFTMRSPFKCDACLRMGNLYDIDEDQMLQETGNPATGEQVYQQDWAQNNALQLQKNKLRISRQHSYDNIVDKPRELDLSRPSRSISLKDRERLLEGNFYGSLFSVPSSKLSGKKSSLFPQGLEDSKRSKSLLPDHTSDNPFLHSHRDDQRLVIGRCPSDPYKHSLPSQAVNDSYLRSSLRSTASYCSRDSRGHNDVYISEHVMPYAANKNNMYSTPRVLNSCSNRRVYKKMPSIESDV

For `CN[C@@]1(c2ccccc2Cl)CCCCC1=O`, the Ki [1] was 1400 nM, the Ki [2] was 2570 nM and the Cmax [3] was 7.93 µmol/kg.
In the case of `CNC1(c2ccccc2Cl)CCCCC1=O.Cl` (stereo not given) [KETAMINE HYDROCHLORIDE], the solubility [4] is reported as 200 mg/mL.
`CNC1(c2ccccc2Cl)CCCCC1=O` (stereo not given) [KETAMINE] showed a Ki [5] of 180 nM, a Time [6] of 15 min and a Ki [7] of 180 nM. For the same molecule, the Ki [8] was 180 nM, the Ki [9] was 180 nM and the Time [10] was 0.5 h. The Time [11] was 4 h, the solubility [12] was 0.046 mg/mL (≈ 193 µM) and the Ki [13] was 180 nM. For the same molecule, the Cmax [14] was 7.6 µM, the Ki [15] was 180 nM and the fraction unbound [16] was 0.88. For the same molecule, the Ki [17] was 180 nM, the Ki [18] was 180 nM and the Ki [19] was 180 nM. It also gave a Ki [20] of 180 nM, a Time [21] of 5 min and a Ki [22] of 180 nM. For the same molecule, the bioavailability [23] was 8%, the Ki [24] was 180 nM and the Ki [25] was 180 nM. It also gave a Ki [26] of 180 nM, a bioavailability [27] of 17% and a Ki [28] of 180 nM. For the same molecule, the Ki [29] was 180 nM, the bioavailability [30] was 93% and the Ki [31] was 180 nM. The Time [32] was 15 min, the Time [33] was 1 min and the half-life [34] was 8 h. The bioavailability [35] was 11%, the Ki [36] was 180 nM and the half-life [37] was 2 h. The Ki [38] was 180 nM, the Ki [39] was 180 nM and the IC50 [40] was 10000 nM. It also gave a dose excreted [41] of 2%, a bioavailability [42] of 24% and a Ki [43] of 180 nM. For the same molecule, the Ki [44] was 180 nM and the F [45] was 100%.
With `N[C@]1(c2ccccc2Cl)CCCCC1=O` the Ki [1] was 1700 nM and the Ki [2] was 2250 nM.
`CN[C@]1(c2ccccc2Cl)CCCCC1=O` [ESKETAMINE] showed a Ki [1] of 300 nM, a Ki [2] of 690 nM and a Cmax [3] of 7.33 µmol/kg.
